The subject of one test is SW1271. The experiment in a line: CellTiter-Glo proliferation/survival assay, SW1271. The test is classed as cell-based. The note with it: 120 h, 5 days, 0.005-100 nM. The procedure: (§1) The panRAS antibody drug conjugates were tested against the following cancer cell lines: • LU65: JCRB No. JCRB0079 cultured in RPMI-1640+10% FBS • HPAC: ATCC No. CRL-2119 cultured in DMEM:HAM's F12+5% FBS • NCI-H727: ATCC No. CRL-5815 cultured in RPMI-1640+10% FBS • SW1271: ATCC No. CRL-2177 cultured in DMEM+10% FBS
(§2) The ability of the panRAS antibody drug conjugates to inhibit cell proliferation and survival was assessed using the Promega CellTiter-Glo® proliferation assay.
(§3) Cell lines were cultured in media that is optimal for their growth at 5% CO2, 37° C. in a tissue culture incubator. Prior to seeding for the proliferation assay, the cells were split at least 2 days before the assay to ensure optimal growth density. On the day of seeding, cell viability and cell density were determined using a cell counter (Vi-Cell XR Cell Viability Analyzer, Beckman Coulter). […] Plates were incubated at 5% CO2, 37° C. for 5 days in a tissue culture incubator, after which cell viability was assessed through the addition of 25 μL of CellTiter Glo® (Promega, cat #G7573), a reagent which lyses cells and measures total adenosine triphosphate (ATP) content. Plates were incubated at room temperature for 10 minutes to stabilize luminescent signals prior to reading using a luminescence reader (EnVision Multilabel Plate Reader, PerkinElmer). […]

The next test has as its system H727. As to the kind of experiment: CellTiter-Glo proliferation/survival assay, H727. The test is classed as cell-based. The note with it: Homo sapiens, NCI-H727, 120 h, 5 days, 0.005-100 nM. Here is the method:
as §1, §2, §3
For orientation: ATP-based viability assays read luminescence as a measure of living cells.

In a further test the test system is HPAC. As to the kind of experiment: CellTiter-Glo proliferation/survival assay, HPAC. Type of test: cell-based. Conditions: Homo sapiens, 120 h, 5 days, 0.005-100 nM. Here is the method: as §1, §2, §3
The test system of a further test is CDK6. The note with it: Finn et al. (2009); cited from earlier work.
For a further test, the system named is CDK4. The note with it: Finn et al. (2009); cited from earlier work.

Molecules are shown by their SMILES.

As for `C=CC(=O)N1CCN(c2nc(=O)n(-c3c(C)ccnc3C(C)C)c3nc(-c4c(O)cccc4F)c(F)cc23)[C@@H](C)C1` [Sotorasib], the IC50 in the test on SW1271, in the test on H727 and in the test on HPAC was greater than 100 nM throughout.
On to `CC(=O)c1c(C)c2cnc(Nc3ccc(N4CCNCC4)cn3)nc2n(C2CCCC2)c1=O` [Palbociclib, 6-Acetyl-8-cyclopentyl-5-methyl-2-{[5-(1-piperazinyl)-2-pyridinyl]amino}pyrido[2,3-d]pyrimidin-7(8H)-one], for which the IC50 with CDK6 is 16 nM; in the test with CDK4, […].

Broadly, the IC50 is the point on the concentration scale where inhibition reaches its midpoint.

The values above are taken from US20260295067A1, “PANRAS INHIBITOR ANTIBODY-DRUG CONJUGATES AND METHODS OF USE THEREOF” (NOVARTIS AG, priority 2023, published 2026).
